In patent publication US6525001B1, “Substituted pyrimidine and pyridine herbicides” (Mid-American Commercialization Corporation, priority 1997, dated 2003):

Key:
Assay in all cases: Test B pre-/postemergence
Assay type in all cases: in vivo
Set-up in all cases: key: 0 is no effect; 10 is complete control
soybean (Glycine max) = test system: soybean (Glycine max)
In short: (§1)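 Compounds in a surfactant-containing, non-phytotoxic solvent blend are applied to freshly planted seed (preemergence) and, concurrently, to seedlings of 2 to 18 cm at 1–4 leaves (postemergence). Plants stay in the greenhouse twelve to sixteen days and are then scored visually from 0 (no effect) to 10 (complete control).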

rape (Brassica napus) = test system: rape (Brassica napus)
In short: as §1

[1] = test system: wheat (Triticum aestivum)
In short: as §1

[2] = test system: sugar beet (Beta vulgaris)
In short: as §1

[3] = test system: crabgrass (Digitaria sanguinalis)
In short: as §1

[4] = test system: purple nutsedge (Cyperus rotundus)
In short: as §1

wild oat (Avena fatua) = test system: wild oat (Avena fatua)
In short: as §1

[5] = test system: pigweed (Amaranthus retroflexus)
In short: as §1

[6] = test system: bedstraw (Galium aparine)
In short: as §1

corn (Zea mays) = test system: corn (Zea mays)
In short: as §1

[7] = test system: momingglory (Ipomoea hederacea)
In short: as §1

[8] = test system: cocklebur (Xanthium strumarium)
In short: as §1

[9] = test system: velvetleaf (Abutilon theophrasti)
In short: as §1

[10] = test system: giant foxtail (Setaria faberii)
In short: as §1

Cc1cnc(-n2cnc(C(F)(F)F)n2)nc1Cn1ccc(C(F)(F)F)n1 [Compound 51]
5: Plant response rating, Wheat ([1]; Rate 250 g/ha, Preemergence)
3: Plant response rating, Wheat ([1]; Rate 125 g/ha, Preemergence) | Nutsedge plant response rating ([4]; Rate 62 g/ha, Preemergence) | Cocklebur plant response rating ([8]; Rate 62 g/ha, Preemergence)
6: Wheat plant response rating ([1]; Rate 62 g/ha, Postemergence) | Plant response rating, Cocklebur ([8]; Rate 62 g/ha, Postemergence)
10: Plant response rating, Soybean (soybean (Glycine max); Rate 250 g/ha, Postemergence) | Rape plant response rating (rape (Brassica napus); Rate 62 g/ha, Preemergence) | Plant response rating, Rape (rape (Brassica napus); Rate 125 g/ha, Preemergence) | Plant response rating, Rape (rape (Brassica napus); Rate 250 g/ha, Postemergence) | Plant response rating, Rape (rape (Brassica napus); Rate 250 g/ha, Preemergence) | Plant response rating, Sugarbeets ([2]; Rate 62 g/ha, Postemergence) | Sugarbeets plant response rating ([2]; Rate 62 g/ha, Preemergence) | Sugarbeets plant response rating ([2]; Rate 125 g/ha, Postemergence) | Plant response rating, Sugarbeets ([2]; Rate 125 g/ha, Preemergence) | Plant response rating, Sugarbeets ([2]; Rate 250 g/ha, Postemergence) | Plant response rating, Sugarbeets ([2]; Rate 250 g/ha, Preemergence) | Crabgrass plant response rating ([3]; Rate 62 g/ha, Preemergence) | Crabgrass plant response rating ([3]; Rate 125 g/ha, Postemergence) | Plant response rating, Crabgrass ([3]; Rate 125 g/ha, Preemergence) | Plant response rating, Crabgrass ([3]; Rate 250 g/ha, Postemergence) | Plant response rating, Crabgrass ([3]; Rate 250 g/ha, Preemergence) | Plant response rating, Redroot pigweed ([5]; Rate 62 g/ha, Postemergence) | Redroot pigweed plant response rating ([5]; Rate 62 g/ha, Preemergence) | Redroot pigweed plant response rating ([5]; Rate 125 g/ha, Postemergence) | Plant response rating, Redroot pigweed ([5]; Rate 125 g/ha, Preemergence) | Plant response rating, Redroot pigweed ([5]; Rate 250 g/ha, Postemergence) | Plant response rating, Redroot pigweed ([5]; Rate 250 g/ha, Preemergence) | Bedstraw plant response rating ([6]; Rate 125 g/ha, Postemergence) | Plant response rating, Bedstraw ([6]; Rate 125 g/ha, Preemergence) | Plant response rating, Bedstraw ([6]; Rate 250 g/ha, Postemergence) | Plant response rating, Morningglory ([7]; Rate 62 g/ha, Postemergence) | Morningglory plant response rating ([7]; Rate 62 g/ha, Preemergence) | Morningglory plant response rating ([7]; Rate 125 g/ha, Postemergence) | Plant response rating, Morningglory ([7]; Rate 125 g/ha, Preemergence) | Plant response rating, Morningglory ([7]; Rate 250 g/ha, Postemergence) | Plant response rating, Morningglory ([7]; Rate 250 g/ha, Preemergence) | Plant response rating, Cocklebur ([8]; Rate 125 g/ha, Preemergence) | Plant response rating, Cocklebur ([8]; Rate 250 g/ha, Preemergence) | Velvetleaf plant response rating ([9]; Rate 62 g/ha, Preemergence) | Plant response rating, Velvetleaf ([9]; Rate 125 g/ha, Preemergence) | Plant response rating, Velvetleaf ([9]; Rate 250 g/ha, Preemergence) | Giant foxtail plant response rating ([10]; Rate 125 g/ha, Postemergence) | Plant response rating, Giant foxtail ([10]; Rate 125 g/ha, Preemergence) | Plant response rating, Giant foxtail ([10]; Rate 250 g/ha, Postemergence) | Plant response rating, Giant foxtail ([10]; Rate 250 g/ha, Preemergence)
7: Plant response rating, Nutsedge ([4]; Rate 62 g/ha, Postemergence) | Plant response rating, Wild oats (wild oat (Avena fatua); Rate 125 g/ha, Preemergence) | Plant response rating, Corn (corn (Zea mays); Rate 62 g/ha, Postemergence) | Plant response rating, Velvetleaf ([9]; Rate 62 g/ha, Postemergence)
0: Wheat plant response rating ([1]; Rate 62 g/ha, Preemergence)
8: Wild oats plant response rating (wild oat (Avena fatua); Rate 62 g/ha, Postemergence) | Plant response rating, Wild oats (wild oat (Avena fatua); Rate 250 g/ha, Preemergence) | Bedstraw plant response rating ([6]; Rate 62 g/ha, Preemergence) | Corn plant response rating (corn (Zea mays); Rate 125 g/ha, Postemergence) | Plant response rating, Corn (corn (Zea mays); Rate 125 g/ha, Preemergence) | Plant response rating, Corn (corn (Zea mays); Rate 250 g/ha, Preemergence) | Velvetleaf plant response rating ([9]; Rate 125 g/ha, Postemergence) | Plant response rating, Giant foxtail ([10]; Rate 62 g/ha, Postemergence) | Giant foxtail plant response rating ([10]; Rate 62 g/ha, Preemergence)
9: Plant response rating, Soybean (soybean (Glycine max); Rate 62 g/ha, Postemergence) | Soybean plant response rating (soybean (Glycine max); Rate 62 g/ha, Preemergence) | Soybean plant response rating (soybean (Glycine max); Rate 125 g/ha, Postemergence) | Plant response rating, Soybean (soybean (Glycine max); Rate 125 g/ha, Preemergence) | Plant response rating, Soybean (soybean (Glycine max); Rate 250 g/ha, Preemergence) | Plant response rating, Rape (rape (Brassica napus); Rate 62 g/ha, Postemergence) | Rape plant response rating (rape (Brassica napus); Rate 125 g/ha, Postemergence) | Wheat plant response rating ([1]; Rate 125 g/ha, Postemergence) | Plant response rating, Wheat ([1]; Rate 250 g/ha, Postemergence) | Plant response rating, Crabgrass ([3]; Rate 62 g/ha, Postemergence) | Plant response rating, Nutsedge ([4]; Rate 125 g/ha, Preemergence) | Wild oats plant response rating (wild oat (Avena fatua); Rate 125 g/ha, Postemergence) | Plant response rating, Wild oats (wild oat (Avena fatua); Rate 250 g/ha, Postemergence) | Plant response rating, Bedstraw ([6]; Rate 62 g/ha, Postemergence) | Plant response rating, Bedstraw ([6]; Rate 250 g/ha, Preemergence) | Plant response rating, Corn (corn (Zea mays); Rate 250 g/ha, Postemergence) | Cocklebur plant response rating ([8]; Rate 125 g/ha, Postemergence) | Plant response rating, Cocklebur ([8]; Rate 250 g/ha, Postemergence) | Plant response rating, Velvetleaf ([9]; Rate 250 g/ha, Postemergence)
4: Wild oats plant response rating (wild oat (Avena fatua); Rate 62 g/ha, Preemergence) | Corn plant response rating (corn (Zea mays); Rate 62 g/ha, Preemergence)
